Test results: patent US10577378B2, “EIF4A-inhibiting compounds and methods related thereto” (eFFECTOR Therapeutics, Inc., priority 2015, dated 2020)

Each compound was assayed on MDA-MB-231 human breast cancer cells (assay: Cell proliferation assay (CellTiter-Glo, 72 hours treatment)). Details: Homo sapiens; MDA-MB-231 cells, 72 hours at 37° C., CellTiter-Glo; read-out: MDA-MB-231 cell proliferation assay (IC50).
Type: cell-based
Method: Human tumor cell lines were cultured in the appropriate media (DMEM and RPMI) supplemented with penicillin G (100 U/ml), streptomycin (100 μg/ml), 10% FBS in a humidified atmosphere of 5% CO2 maintained at 37° C. Exponentially growing cells were seeded at 2,500 cells/well in 96 well plates prior to drug treatment. The following day, cells were treated with either DMSO (vehicle control) or eIF4A inhibitors at the appropriate dose for 72 hours at 37° C. Following compound treatment, cell proliferation was assessed by CellTiter-Glo assay (Promega, Madison Wis.) according to the manufacturer's protocol. Dose-response curves were fitted by non-linear regression (sigmoidal dose response model) using KaleidaGraph (Synergy Software, Reading Pa.) and IC50 values were calculated.
To this end, IC50 values of less than 100 nM are labelled as “+++”, from 100 nM to 1000 nM are labelled as “++”, and greater than 1000 nM are labelled as “+” (NA means “not available”).

| Compound | IC50 |
| --- | --- |
| COc1cncc2c1[C@]1(O)[C@@H](CNC3COC3)[C@H](CO)[C@@H](c3ccccc3)[C@]1(c1ccc(Br)cc1)O2 (racemic) [185F, Rac-(4bR,5R,6R,7S,7aR)-7a-(4-bromophenyl)-6-(hydroxymethyl)-4-methoxy-5-((oxetan-3-ylamino)methyl)-7-phenyl-5,6,7,7a-tetrahydro-4bH-cyclopenta[4,5]furo[2,3-c]pyridin-4b-ol] | < 100 nM |
| COc1nc(C#N)cc2c1[C@]1(O)[C@@H](CN3CCC(F)(F)CC3)[C@H](CO)[C@@H](c3ccccc3)[C@]1(c1ccc(C#N)cc1)O2 (racemic) [213F, Rac-(5aR,6S,7R,8R,8aR)-5a-(4-cyanophenyl)-8-((4,4-difluoropiperidin-1-yl)methyl)-8a-hydroxy-7-(hydroxymethyl)-1-methoxy-6-phenyl-5a,7,8,8a-tetrahydro-6H-cyclopenta[4,5]furo[3,2-c]pyridine-3-carbonitrile] | < 100 nM |
| COC(=O)C(C[C@H]1C(=O)[C@@]2(O)c3ncc(Cl)cc3O[C@@]2(c2ccc(Br)cc2)[C@@H]1c1ccccc1)C(=O)OC (racemic) [46F, Rac-dimethyl 2-[[(5aR,6S,7R,8aR)-5a-(4-bromophenyl)-3-chloro-8a-hydroxy-8-oxo-6-phenyl-6,7-dihydrocyclopenta[4,5]furo[1,2-b]pyridin-7-yl]methyl]propanedioate] | > 1000 nM |
| O[C@H]1[C@H](Sc2ccccn2)[C@@H](c2ccccc2)[C@]2(c3ccc(Br)cc3)Oc3cc(Cl)cnc3[C@]12O (racemic) [160Fb, Rac-(5aR,6S,7R,8R,8aS)-5a-(4-bromophenyl)-3-chloro-6-phenyl-7-(pyridin-2-ylthio)-5a,6,7,8-tetrahydro-8aH-cyclopenta[4,5]furo[3,2-b]pyridine-8,8a-diol] | > 1000 nM |
| COc1cncc2c1[C@]1(O)[C@H](O)[C@H](CN3[C@@H]4CCC[C@H]3CC4)[C@@H](c3ccccc3)[C@]1(c1ccc(C#N)cc1)O2 (single isomer, unassigned) [268F] | 100 to 1000 nM |
| COc1cncc2c1C1(O)[C@H](O)[C@H](CNCc3cccnc3)[C@@H](c3ccccc3)[C@]1(c1ccc(C#N)cc1)O2 (mixture of isomers) [78F, Rac-4-((5R,6S,7S,7aR)-4b,5-dihydroxy-4-methoxy-7-phenyl-6-(((pyridin-3-ylmethyl)amino)methyl)-4b,5,6,7-tetrahydro-7aH-cyclopenta[4,5]furo[2,3-c]pyridin-7a-yl)benzonitrile] | 100 to 1000 nM |
| COc1cncc2c1[C@]1(O)[C@H](O)[C@H](CN(C)C)[C@@H](c3ccccc3)[C@]1(c1ccc(C)cc1)O2 (single isomer, unassigned) [256F] | < 100 nM |
| COc1nc(Cl)cc2c1[C@]1(O)[C@H](O)[C@H](CN3CC(F)C3)[C@@H](c3ccccc3)[C@]1(c1ccc(C#N)cc1)O2 (racemic) [211Fb, Rac-4-((5aR,6S,7S,8R,8aS)-3-chloro-7-((3-fluoroazetidin-1-yl)methyl)-8,8a-dihydroxy-1-methoxy-6-phenyl-6,7,8,8a-tetrahydro-5aH-cyclopenta[4,5]furo[3,2-c]pyridin-5a-yl)benzonitrile] | < 100 nM |
| CN(C)C(=O)[C@H]1[C@@H](O)[C@@]2(O)c3c(Cl)cncc3O[C@@]2(c2ccc(Br)cc2)[C@@H]1c1ccccc1 (racemic) [97F, Rac-(4bS,5R,6R,7S,7aR)-7a-(4-bromophenyl)-4-chloro-4b,5-dihydroxy-N,N-dimethyl-7-phenyl-4b,6,7,7a-tetrahydro-5H-cyclopenta[4,5]furo[2,3-c]pyridine-6-carboxamide] | 100 to 1000 nM |
| CN(C)S(=O)(=O)[C@H]1[C@@H](O)[C@@]2(O)c3ncc(Cl)cc3O[C@@]2(c2ccc(C#N)cc2)[C@@H]1c1ccccc1 (racemic) [22F, Rac-(5aR,6S,7R,8S,8aS)-3-chloro-5a-(4-cyanophenyl)-8,8a-dihydroxy-N,N-dimethyl-6-phenyl-5a,7,8,8a-tetrahydro-6H-cyclopenta[4,5]furo[3,2-b]pyridine-7-sulfonamide] | 100 to 1000 nM |
| COc1nc(C#N)cc2c1[C@]1(O)[C@H](O)[C@H](CN3CCN(C)CC3)[C@@H](c3ccccc3)[C@]1(c1ccc(C#N)cc1)O2 (racemic) [198Fb, Rac-(5aR,6S,7S,8R,8aS)-5a-(4-cyanophenyl)-8,8a-dihydroxy-1-methoxy-7-((4-methylpiperazin-1-yl)methyl)-6-phenyl-5a,7,8,8a-tetrahydro-6H-cyclopenta[4,5]furo[3,2-c]pyridine-3-carbonitrile] | < 100 nM |
| COc1cncc2c1[C@]1(O)[C@H](O)[C@H](C(=O)NCC(F)(F)F)[C@@H](c3ccccc3)[C@]1(c1ccc(Br)cc1)O2 (racemic) [90F, Rac-(4bS,5R,6R,7S,7aR)-7a-(4-bromophenyl)-4b,5-dihydroxy-4-methoxy-7-phenyl-N-(2,2,2-trifluoroethyl)-4b,6,7,7a-tetrahydro-5H-cyclopenta[4,5]furo[2,3-c]pyridine-6-carboxamide] | < 100 nM |
| CN(C)C[C@H]1[C@@H](O)[C@@]2(O)c3ncc(Cl)cc3O[C@@]2(c2ccc(C(F)(F)F)cc2)[C@@H]1c1ccccc1 (single isomer, unassigned) [109F] | 100 to 1000 nM |
| COc1nc(Cl)cc2c1[C@]1(O)[C@H](O)[C@H](CN(C)C)[C@@H](c3ccccc3)[C@]1(c1ccc(C#N)cc1)O2 (single isomer, unassigned) [140F] | < 100 nM |
| O=C1C[C@@H](c2ccccc2)[C@]2(c3ccc(Br)cc3)Oc3cc(Cl)cnc3[C@]12O (racemic) [129F, Rac-(5aR,6S,8aR)-5a-(4-bromophenyl)-3-chloro-8a-hydroxy-6-phenyl-5a,6,7,8a-tetrahydro-8H-cyclopenta[4,5]furo[3,2-b]pyridin-8-one] | > 1000 nM |
| CN(C)C(=O)[C@H]1[C@@H](O)[C@@]2(O)c3n[nH]cc3O[C@@]2(c2ccc(C#N)cc2)[C@@H]1c1ccccc1 (racemic) [100F, rac-(4aR,5S,6R,7R,7aS)-4a-(4-cyanophenyl)-7,7a-dihydroxy-N,N-dimethyl-5-phenyl-2,4a,5,6,7,7a-hexahydrocyclopenta[4,5]furo[3,2-c]pyrazole-6-carboxamide] | > 1000 nM |
| COc1cncc2c1[C@]1(O)[C@@H](CNCC(F)F)[C@H](CO)[C@@H](c3ccccc3)[C@]1(c1ccc(Br)cc1)O2 (racemic) [181F, Rac-(4bR,5R,6R,7S,7aR)-7a-(4-bromophenyl)-5-(((2,2-difluoroethyl)amino)methyl)-6-(hydroxymethyl)-4-methoxy-7-phenyl-5,6,7,7a-tetrahydro-4bH-cyclopenta[4,5]furo[2,3-c]pyridin-4b-ol] | < 100 nM |
| COc1nc(Cl)cc2c1[C@]1(O)[C@@H](CN(C)C)[C@H](CO)[C@@H](c3ccccc3)[C@]1(c1ccc(Br)cc1)O2 (racemic) [209F, Rac-(5aR,6S,7R,8R,8aR)-5a-(4-bromophenyl)-3-chloro-8-((dimethylamino)methyl)-7-(hydroxymethyl)-1-methoxy-6-phenyl-5a,6,7,8-tetrahydro-8aH-cyclopenta[4,5]furo[3,2-c]pyridin-8a-ol] | < 100 nM |
| COc1cncc2c1[C@]1(O)[C@@H](CNCc3ccnn3C)[C@H](CO)[C@@H](c3ccccc3)[C@]1(c1ccc(Br)cc1)O2 (racemic) [203F, Rac-(4bR,5R,6R,7S,7aR)-7a-(4-bromophenyl)-6-(hydroxymethyl)-4-methoxy-5-((((1-methyl-1H-pyrazol-5-yl)methyl)amino)methyl)-7-phenyl-5,6,7,7a-tetrahydro-4bH-cyclopenta[4,5]furo[2,3-c]pyridin-4b-ol] | < 100 nM |
| COc1cncc2c1[C@]1(O)[C@H](O)[C@H](C(=O)N3CCC(F)(F)CC3)[C@@H](c3ccccc3)[C@]1(c1ccc(Br)cc1)O2 (racemic) [135F, Rac-((4bS,5R,6R,7S,7aR)-7a-(4-bromophenyl)-4b,5-dihydroxy-4-methoxy-7-phenyl-4b,6,7,7a-tetrahydro-5H-cyclopenta[4,5]furo[2,3-c]pyridin-6-yl)(4,4-difluoropiperidin-1-yl)methanone] | < 100 nM |
| COc1cncc2c1[C@]1(O)[C@H](O)[C@H](C(=O)N(C)Cc3ccnn3C)[C@@H](c3ccccc3)[C@]1(c1ccc(Br)cc1)O2 (racemic) [249F, Rac-(4bS,5R,6R,7S,7aR)-7a-(4-bromophenyl)-4b,5-dihydroxy-4-methoxy-N-methyl-N-((1-methyl-1H-pyrazol-5-yl)methyl)-7-phenyl-4b,6,7,7a-tetrahydro-5H-cyclopenta[4,5]furo[2,3-c]pyridine-6-carboxamide] | < 100 nM |
| COc1cncc2c1[C@]1(O)[C@H](O)[C@H](CN3CCN(C(C)=O)CC3)[C@@H](c3ccccc3)[C@]1(c1ccc(C#N)cc1)O2 (racemic) [194F, Rac-4-((4bS,5R,6S,7S,7aR)-6-((4-acetylpiperazin-1-yl)methyl)-4b,5-dihydroxy-4-methoxy-7-phenyl-4b,5,6,7-tetrahydro-7aH-cyclopenta[4,5]furo[2,3-c]pyridin-7a-yl)benzonitrile] | > 1000 nM |
| N#Cc1ccc([C@@]23Oc4cc(Cl)cnc4[C@]2(O)[C@@H](O)[C@H](CN2CCCC2)[C@H]3c2ccccc2)cc1 (racemic) [41Fc, rac-4-((5aR,6S,7S,8S,8aS)-3-chloro-8,8a-dihydroxy-6-phenyl-7-(pyrrolidin-1-ylmethyl)-6,7,8,8a-tetrahydro-5aH-cyclopenta[4,5]furo[3,2-b]pyridin-5a-yl)benzonitrile] | > 1000 nM |
| CN(C)C[C@H]1[C@@H](O)[C@@]2(O)c3ncc(Cl)cc3O[C@@]2(c2ccc(C#N)cc2)[C@@H]1c1ccccc1 (racemic) [40Fb, rac-4-((5aR,6S,7S,8R,8aS)-3-chloro-7-((dimethylamino)methyl)-8,8a-dihydroxy-6-phenyl-6,7,8,8a-tetrahydro-5aH-cyclopenta[4,5]furo[3,2-b]pyridin-5a-yl)benzonitrile] | 100 to 1000 nM |
